Data on four compounds can be found in PubChem BioAssay (NCI).

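A five-concentration, 48-hour dose response in 96-well plates underlies each endpoint, interpolated linearly between surrounding concentrations. TGI denotes the concentration required for complete inhibition of growth.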

For one experiment, the system named is MOLT-4 leukemia. Nature of the experiment: NCI tumour cell line growth inhibition, 48 h.
The compound `Oc1ccccc1C(c1cc2c(cc1O)OCO2)N1CCOCC1` (stereo unspecified) gave a TGI of 40.6 µM.

Another experiment concerns NCI-H226 lung. Nature of the experiment: NCI tumour cell line growth inhibition, 48 h.
With `CCOP(=O)(OCC)[C@H](O)c1ccsc1`, the TGI is above 100 µM.

The compound `COc1ccc(Nc2[nH]c(C(C)=O)c(N)c2C(=S)Nc2ccccc2)cc1` displayed a TGI above 100 µM.

With `Oc1ccccc1C(c1cc2c(cc1O)OCO2)N1CCOCC1` (stereo unspecified), the TGI is above 100 µM.

`CCN(CC)CCOC(c1cc(OC)ccc1OC)c1ccc2n1-c1ccccc1OC2` (stereo unspecified) came in with a TGI of 14.6 µM.

The subject of a further experiment is NCI-H23 lung. In words: NCI tumour cell line growth inhibition, 48 h.
Turning to `CCOP(=O)(OCC)[C@H](O)c1ccsc1`, the TGI is above 100 µM.

In turn, `COc1ccc(Nc2[nH]c(C(C)=O)c(N)c2C(=S)Nc2ccccc2)cc1` came in with a TGI above 100 µM.

`Oc1ccccc1C(c1cc2c(cc1O)OCO2)N1CCOCC1` (stereo unspecified) displayed a TGI of 46.6 µM.

`CCN(CC)CCOC(c1cc(OC)ccc1OC)c1ccc2n1-c1ccccc1OC2` (stereo unspecified) had a TGI of 25.6 µM.

The next experiment concerns NCI-H460 lung. In words: NCI tumour cell line growth inhibition, 48 h.
Compound `CCOP(=O)(OCC)[C@H](O)c1ccsc1` gave a TGI above 100 µM.

As for `COc1ccc(Nc2[nH]c(C(C)=O)c(N)c2C(=S)Nc2ccccc2)cc1`, the TGI was above 100 µM.

As to `Oc1ccccc1C(c1cc2c(cc1O)OCO2)N1CCOCC1` (stereo unspecified), the TGI came out at 72.7 µM.

Take `CCN(CC)CCOC(c1cc(OC)ccc1OC)c1ccc2n1-c1ccccc1OC2` (stereo unspecified): the TGI was found to be 26.2 µM.

The test system of the next experiment is NCI-H522 lung. In words: NCI tumour cell line growth inhibition, 48 h.
`CCOP(=O)(OCC)[C@H](O)c1ccsc1` had a TGI above 100 µM.

For `COc1ccc(Nc2[nH]c(C(C)=O)c(N)c2C(=S)Nc2ccccc2)cc1`, the TGI was above 100 µM.

For the compound `Oc1ccccc1C(c1cc2c(cc1O)OCO2)N1CCOCC1` (stereo unspecified), the TGI came to 24.3 µM.

In turn, `CCN(CC)CCOC(c1cc(OC)ccc1OC)c1ccc2n1-c1ccccc1OC2` (stereo unspecified) gave a TGI of 30 µM.

The next experiment has as its system NCI/ADR-RES ovarian. Nature of the experiment: NCI tumour cell line growth inhibition, 48 h.
In turn, `CCOP(=O)(OCC)[C@H](O)c1ccsc1` showed a TGI above 100 µM.

The compound `COc1ccc(Nc2[nH]c(C(C)=O)c(N)c2C(=S)Nc2ccccc2)cc1` displayed a TGI above 100 µM.

The compound `CCN(CC)CCOC(c1cc(OC)ccc1OC)c1ccc2n1-c1ccccc1OC2` (stereo unspecified) had a TGI of 13.9 µM.

The next experiment relates to OVCAR-3 ovarian. Nature of the experiment: NCI tumour cell line growth inhibition, 48 h.
In the case of `COc1ccc(Nc2[nH]c(C(C)=O)c(N)c2C(=S)Nc2ccccc2)cc1`, the TGI is above 100 µM.

`Oc1ccccc1C(c1cc2c(cc1O)OCO2)N1CCOCC1` (stereo unspecified) came in with a TGI of 31.6 µM.

Turning to `CCN(CC)CCOC(c1cc(OC)ccc1OC)c1ccc2n1-c1ccccc1OC2` (stereo unspecified), the TGI stood at 31 µM.

The subject of another experiment is OVCAR-4 ovarian. Nature of the experiment: NCI tumour cell line growth inhibition, 48 h.
`CCOP(=O)(OCC)[C@H](O)c1ccsc1` registered a TGI above 100 µM.

Regarding `COc1ccc(Nc2[nH]c(C(C)=O)c(N)c2C(=S)Nc2ccccc2)cc1`, the TGI was above 100 µM.

Turning to `CCN(CC)CCOC(c1cc(OC)ccc1OC)c1ccc2n1-c1ccccc1OC2` (stereo unspecified), the TGI was 31.9 µM.

The next experiment deals with OVCAR-5 ovarian. In words: NCI tumour cell line growth inhibition, 48 h.
For `CCOP(=O)(OCC)[C@H](O)c1ccsc1`, the TGI was above 100 µM.

For the compound `COc1ccc(Nc2[nH]c(C(C)=O)c(N)c2C(=S)Nc2ccccc2)cc1`, the TGI was above 100 µM.

On to `Oc1ccccc1C(c1cc2c(cc1O)OCO2)N1CCOCC1` (stereo unspecified), for which the TGI worked out at 57.8 µM.

The compound `CCN(CC)CCOC(c1cc(OC)ccc1OC)c1ccc2n1-c1ccccc1OC2` (stereo unspecified) had a TGI of 37.4 µM.

A further experiment relates to OVCAR-8 ovarian. Nature of the experiment: NCI tumour cell line growth inhibition, 48 h.
`CCOP(=O)(OCC)[C@H](O)c1ccsc1`: the TGI is above 100 µM.

As for `COc1ccc(Nc2[nH]c(C(C)=O)c(N)c2C(=S)Nc2ccccc2)cc1`, the TGI is above 100 µM.

`Oc1ccccc1C(c1cc2c(cc1O)OCO2)N1CCOCC1` (stereo unspecified): the TGI was 44.7 µM.

Turning to `CCN(CC)CCOC(c1cc(OC)ccc1OC)c1ccc2n1-c1ccccc1OC2` (stereo unspecified), the TGI was 25.9 µM.

Another experiment deals with PC-3 prostate. In words: NCI tumour cell line growth inhibition, 48 h.
As for `CCOP(=O)(OCC)[C@H](O)c1ccsc1`, the TGI was above 100 µM.

Consider `Oc1ccccc1C(c1cc2c(cc1O)OCO2)N1CCOCC1` (stereo unspecified), for which the TGI was determined as 31.6 µM.

With `CCN(CC)CCOC(c1cc(OC)ccc1OC)c1ccc2n1-c1ccccc1OC2` (stereo unspecified), the TGI was 27.4 µM.

In a further experiment the test system is RPMI-8226 leukemia. Nature of the experiment: NCI tumour cell line growth inhibition, 48 h.
On to `CCOP(=O)(OCC)[C@H](O)c1ccsc1`, for which the TGI was above 100 µM.

Compound `Oc1ccccc1C(c1cc2c(cc1O)OCO2)N1CCOCC1` (stereo unspecified) gave a TGI of 41.7 µM.

For `CCN(CC)CCOC(c1cc(OC)ccc1OC)c1ccc2n1-c1ccccc1OC2` (stereo unspecified), the TGI came to 16 µM.

For a further experiment, the system named is RXF 393 renal. Nature of the experiment: NCI tumour cell line growth inhibition, 48 h.
In the case of `CCOP(=O)(OCC)[C@H](O)c1ccsc1`, the TGI was above 100 µM.

Compound `COc1ccc(Nc2[nH]c(C(C)=O)c(N)c2C(=S)Nc2ccccc2)cc1` registered a TGI of 77.7 µM.

`Oc1ccccc1C(c1cc2c(cc1O)OCO2)N1CCOCC1` (stereo unspecified): the TGI was found to be 30.8 µM.

For the compound `CCN(CC)CCOC(c1cc(OC)ccc1OC)c1ccc2n1-c1ccccc1OC2` (stereo unspecified), the TGI came out at 21.4 µM.

A further experiment concerns SF-268 CNS. In words: NCI tumour cell line growth inhibition, 48 h.
On to `CCOP(=O)(OCC)[C@H](O)c1ccsc1`, for which the TGI is above 100 µM.

Turning to `COc1ccc(Nc2[nH]c(C(C)=O)c(N)c2C(=S)Nc2ccccc2)cc1`, the TGI is above 100 µM.

Take `Oc1ccccc1C(c1cc2c(cc1O)OCO2)N1CCOCC1` (stereo unspecified): the TGI is 36.9 µM.

Take `CCN(CC)CCOC(c1cc(OC)ccc1OC)c1ccc2n1-c1ccccc1OC2` (stereo unspecified): the TGI is 28.8 µM.

In a further experiment the test system is SF-295 CNS. In words: NCI tumour cell line growth inhibition, 48 h.
`CCOP(=O)(OCC)[C@H](O)c1ccsc1`: the TGI is above 100 µM.

Consider `COc1ccc(Nc2[nH]c(C(C)=O)c(N)c2C(=S)Nc2ccccc2)cc1`, for which the TGI was above 100 µM.

Compound `Oc1ccccc1C(c1cc2c(cc1O)OCO2)N1CCOCC1` (stereo unspecified) had a TGI of 41.6 µM.

Compound `CCN(CC)CCOC(c1cc(OC)ccc1OC)c1ccc2n1-c1ccccc1OC2` (stereo unspecified) yielded a TGI of 23.9 µM.

Another experiment relates to SF-539 CNS. In words: NCI tumour cell line growth inhibition, 48 h.
Take `CCOP(=O)(OCC)[C@H](O)c1ccsc1`: the TGI is above 100 µM.

In the case of `COc1ccc(Nc2[nH]c(C(C)=O)c(N)c2C(=S)Nc2ccccc2)cc1`, the TGI is above 100 µM.

As for `Oc1ccccc1C(c1cc2c(cc1O)OCO2)N1CCOCC1` (stereo unspecified), the TGI was 39.2 µM.

The subject of another experiment is SK-MEL-2 melanoma. In words: NCI tumour cell line growth inhibition, 48 h.
In turn, `CCOP(=O)(OCC)[C@H](O)c1ccsc1` came in with a TGI above 100 µM.
